From PubChem BioAssay AID1963967 (Molecular Pharmacology Branch, DTP, NCI, 2024)
Values joined by “and” are separate entries in the source; they are usually repeats but may differ in a detail not shown here. Identical values can stand only once.

System: 855422-203-R-J1-PDC spheroids with HUVEC/MSC, viability
Test: Anticancer human tumor 855422-203-R-J1-PDC patient-derived bladder carcinoma cell line growth inhibition [PI3K]
Conditions: for viability, T/C: stronger effect = lower value
Method in brief: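 Targeted small molecules plus PI3K inhibitors, half-log dose series from Cmax (default top 10 microM), were applied to heterotypic spheroids of cancer cells with HUVEC and MSCs. Viability indicated growth inhibition.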

[1] = curve of first compound, second compound 0.0316 µM
[2] = curve of first compound, second compound 0.1 µM
[3] = curve of first compound, second compound 0.316 µM
[4] = curve of first compound, second compound 1 µM
[5] = curve of first compound, second compound 0.00316 µM
[6] = curve of first compound, second compound 0.01 µM
[7] = second compound 0.00316 µM, first compound 0.0316 µM
[8] = second compound 0.00316 µM, first compound 0.1 µM
[9] = second compound 0.00316 µM, first compound 0.316 µM
[10] = second compound 0.00316 µM, first compound 1 µM
[11] = second compound 0.01 µM, first compound 0.0316 µM
[12] = second compound 0.01 µM, first compound 0.1 µM
[13] = second compound 0.01 µM, first compound 0.316 µM
[14] = second compound 0.01 µM, first compound 1 µM
[15] = second compound 0.0316 µM, first compound 0.0316 µM
[16] = second compound 0.0316 µM, first compound 0.1 µM
[17] = second compound 0.0316 µM, first compound 0.316 µM
[18] = second compound 0.0316 µM, first compound 1 µM
[19] = second compound 0.1 µM, first compound 0.0316 µM
[20] = second compound 0.1 µM, first compound 0.1 µM
[21] = second compound 0.1 µM, first compound 0.316 µM
[22] = second compound 0.1 µM, first compound 1 µM
[23] = second compound 0.316 µM, first compound 0.0316 µM
[24] = second compound 0.316 µM, first compound 0.1 µM
[25] = second compound 0.316 µM, first compound 0.316 µM
[26] = second compound 0.316 µM, first compound 1 µM
[27] = second compound 1 µM, first compound 0.0316 µM
[28] = second compound 1 µM, first compound 0.1 µM
[29] = second compound 1 µM, first compound 0.316 µM
[30] = second compound 1 µM, first compound 1 µM
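Also: agents incubated with spheroids for one week before read-out.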
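For viability, T/C in this document: 100% = DMSO vehicle-treated control wells.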

CCN1CCN(Cc2ccc(Nc3ncc(F)c(-c4cc(F)c5nc(C)n(C(C)C)c5c4)n3)nc2)CC1
viability, T/C (compound 0.00316 µM): 111% [middle of 4 runs] | viability, T/C (compound 0.0316 µM): 107% [middle of 4 runs] | viability, T/C (compound 0.1 µM): 83.3% [middle of 4 runs] | viability, T/C (compound 0.316 µM): 71.9% and 69.7% (2×) and 83.9% | viability, T/C (compound 1 µM): 60.2% [middle of 4 runs] | IC50 (curve of compound): > 1000 nM

Cn1cnc2c(F)c(Nc3ccc(Br)cc3Cl)c(C(=O)NOCCO)cc21 + Cc1nc(NC(=O)N2CCCC2C(N)=O)sc1-c1ccnc(C(C)(C)C(F)(F)F)c1
IC50 [1]: 2250 nM | IC50 [2]: 2580 nM | IC50 [3]: 1350 nM | IC50 [4]: 111 nM | IC50 (curve of first compound, second compound 3.16 µM): < 9.49 nM | IC50 (curve of first compound, second compound 10 µM): < 9.49 nM | viability, T/C (second compound 0.0316 µM, first compound 0.00949 µM): 94% | viability, T/C (second compound 0.0316 µM, first compound 0.03 µM): 79.5% | viability, T/C (second compound 0.0316 µM, first compound 0.0949 µM): 116% | viability, T/C (second compound 0.0316 µM, first compound 0.3 µM): 90.4% | viability, T/C (second compound 0.0316 µM, first compound 0.949 µM): 82.1% | viability, T/C (second compound 0.0316 µM, first compound 3 µM): 39.2% | viability, T/C (second compound 0.1 µM, first compound 0.00949 µM): 96.6% | viability, T/C (second compound 0.1 µM, first compound 0.03 µM): 92.9% | viability, T/C (second compound 0.1 µM, first compound 0.0949 µM): 89.8% | viability, T/C (second compound 0.1 µM, first compound 0.3 µM): 82.1% | viability, T/C (second compound 0.1 µM, first compound 0.949 µM): 79.4% | viability, T/C (second compound 0.1 µM, first compound 3 µM): 45.1% | viability, T/C (second compound 0.316 µM, first compound 0.00949 µM): 85.9% | viability, T/C (second compound 0.316 µM, first compound 0.03 µM): 78% | viability, T/C (second compound 0.316 µM, first compound 0.0949 µM): 89.9% | viability, T/C (second compound 0.316 µM, first compound 0.3 µM): 75.7% | viability, T/C (second compound 0.316 µM, first compound 0.949 µM): 61.6% | viability, T/C (second compound 0.316 µM, first compound 3 µM): 25% | viability, T/C (second compound 1 µM, first compound 0.00949 µM): 53.1% | viability, T/C (second compound 1 µM, first compound 0.03 µM): 59.4% | viability, T/C (second compound 1 µM, first compound 0.0949 µM): 45.1% | viability, T/C (second compound 1 µM, first compound 0.3 µM): 44.3% | viability, T/C (second compound 1 µM, first compound 0.949 µM): 36.2% | viability, T/C (second compound 1 µM, first compound 3 µM): 10.2% | viability, T/C (second compound 3.16 µM, first compound 0.00949 µM): 33.7% | viability, T/C (second compound 3.16 µM, first compound 0.03 µM): 32.9% | viability, T/C (second compound 3.16 µM, first compound 0.0949 µM): 21.7% | viability, T/C (second compound 3.16 µM, first compound 0.3 µM): 21.2% | viability, T/C (second compound 3.16 µM, first compound 0.949 µM): 16% | viability, T/C (second compound 3.16 µM, first compound 3 µM): 6% | viability, T/C (second compound 10 µM, first compound 0.00949 µM): 22.9% | viability, T/C (second compound 10 µM, first compound 0.03 µM): 11.8% | viability, T/C (second compound 10 µM, first compound 0.0949 µM): 12.7% | viability, T/C (second compound 10 µM, first compound 0.3 µM): 8.91% | viability, T/C (second compound 10 µM, first compound 0.949 µM): 5.5% | viability, T/C (second compound 10 µM, first compound 3 µM): 1.88%

CC(C)NCC(C(=O)N1CCN(c2ncnc3c2C(C)CC3O)CC1)c1ccc(Cl)cc1 (configuration not stated) + CC(Nc1ccc2c(c1)OCCn1cc(N3C(=O)OCC3C(F)F)nc1-2)C(N)=O
IC50 [5]: 836 nM | IC50 [6]: 1120 nM | IC50 [1]: 1160 nM | IC50 [2]: 671 nM | IC50 [3]: < 31.6 nM | IC50 [4]: < 31.6 nM | viability, T/C [7]: 107% | viability, T/C [8]: 65.8% | viability, T/C [9]: 70.4% | viability, T/C [10]: 45.3% | viability, T/C (second compound 0.00316 µM, first compound 3.16 µM): 38.7% | viability, T/C (second compound 0.00316 µM, first compound 10 µM): 20.4% | viability, T/C [11]: 82.2% | viability, T/C [12]: 65.8% | viability, T/C [13]: 71.3% | viability, T/C [14]: 51.5% | viability, T/C (second compound 0.01 µM, first compound 3.16 µM): 32.2% | viability, T/C (second compound 0.01 µM, first compound 10 µM): 18.4% | viability, T/C [15]: 66.6% | viability, T/C [16]: 70% | viability, T/C [17]: 67.7% | viability, T/C [18]: 49.1% | viability, T/C (second compound 0.0316 µM, first compound 3.16 µM): 34.8% | viability, T/C (second compound 0.0316 µM, first compound 10 µM): 16.4% | viability, T/C [19]: 65.8% | viability, T/C [20]: 63.6% | viability, T/C [21]: 61.9% | viability, T/C [22]: 42.8% | viability, T/C (second compound 0.1 µM, first compound 3.16 µM): 27.2% | viability, T/C (second compound 0.1 µM, first compound 10 µM): 12.4% | viability, T/C [23]: 47.6% | viability, T/C [24]: 49.6% | viability, T/C [25]: 45.8% | viability, T/C [26]: 38.3% | viability, T/C (second compound 0.316 µM, first compound 3.16 µM): 24% | viability, T/C (second compound 0.316 µM, first compound 10 µM): 11.9% | viability, T/C [27]: 39.2% | viability, T/C [28]: 36.5% | viability, T/C [29]: 31.4% | viability, T/C [30]: 28.3% | viability, T/C (second compound 1 µM, first compound 3.16 µM): 20.9% | viability, T/C (second compound 1 µM, first compound 10 µM): 10.5%

CCN1CCN(Cc2ccc(Nc3ncc(F)c(-c4cc(F)c5nc(C)n(C(C)C)c5c4)n3)nc2)CC1 + COc1c(OCCCN2CCOCC2)ccc2c3n(c(=NC(=O)c4cnc(N)nc4)nc12)CCN3
IC50 [5]: > 1000 nM | IC50 [6]: 409 nM | IC50 [1]: 55 nM | IC50 [2]: < 3.16 nM | IC50 [3]: < 3.16 nM | IC50 [4]: < 3.16 nM | viability, T/C (second compound 0.00316 µM, first compound 0.00316 µM): 95.2% | viability, T/C (second compound 0.00316 µM, first compound 0.01 µM): 77.9% | viability, T/C [7]: 103% | viability, T/C [8]: 82.6% | viability, T/C [9]: 77.6% | viability, T/C [10]: 60.5% | viability, T/C (second compound 0.01 µM, first compound 0.00316 µM): 87.8% | viability, T/C (second compound 0.01 µM, first compound 0.01 µM): 89.9% | viability, T/C [11]: 85.2% | viability, T/C [12]: 71.1% | viability, T/C [13]: 52.9% | viability, T/C [14]: 41.6% | viability, T/C (second compound 0.0316 µM, first compound 0.00316 µM): 64.8% | viability, T/C (second compound 0.0316 µM, first compound 0.01 µM): 67.6% | viability, T/C [15]: 52.7% | viability, T/C [16]: 45.7% | viability, T/C [17]: 26.7% | viability, T/C [18]: 20.6% | viability, T/C (second compound 0.1 µM, first compound 0.00316 µM): 28.9% | viability, T/C (second compound 0.1 µM, first compound 0.01 µM): 29.3% | viability, T/C [19]: 22.7% | viability, T/C [20]: 15.6% | viability, T/C [21]: 12.2% | viability, T/C [22]: 13.9% | viability, T/C (second compound 0.316 µM, first compound 0.00316 µM): 11.5% | viability, T/C (second compound 0.316 µM, first compound 0.01 µM): 9.97% | viability, T/C [23]: 8.87% | viability, T/C [24]: 7.84% | viability, T/C [25]: 8.06% | viability, T/C [26]: 8.7% | viability, T/C (second compound 1 µM, first compound 0.00316 µM): 4.05% | viability, T/C (second compound 1 µM, first compound 0.01 µM): 5.98% | viability, T/C [27]: 4.02% | viability, T/C [28]: 4.36% | viability, T/C [29]: 4.5% | viability, T/C [30]: 5.49%
